Test results from patent publication US6372297B1, “Wood preservative oxathiazines” (Uniroyal Chemical Company, Inc., priority 1993, dated 2002).

Tests used:
[1] = system: blue-stain fungi and molds; experiment: Activity against blue-stain fungi and molds on a stick test on vermiculite (paint film); parameters: key to Surface score of wooden sticks treated with paint formulation, C. cladosporioides / Surface score of wooden sticks treated with paint formulation, P. purpurogenum / Surface score of wooden sticks treated with paint formulation, P. violacea / Surface score of wooden sticks treated with paint formulation, R rubra (y) / Surface score of wooden sticks treated with paint formulation, S. chartarum / Surface score of wooden sticks treated with paint formulation, A. versicolor / Surface score of wooden sticks treated with paint formulation, A. pullulans: 0: No growth; Trace of growth of up to 1% coverage of the test inoculated area; 2: Growth covering between 1 and 10% of the inoculated test area; Growth covering between 10 and 30% of the inoculated test area; 4: Growth covering between 30 and 70% of the inoculated test area; 5: Growth covering more than 70t of the inoculated test area; conditions: 12 weeks on vermiculite; for Surface score of wooden sticks treated with paint formulation, R rubra (y): R rubra (yeast)
In short: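 Painted, γ-sterilised beech sticks dipped in spore suspensions of each fungus, then held on moist vermiculite for 12 weeks. Surface fungal growth scored visually on a 0 (none) to 5 (over 70% of inoculated area) scale.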

[2] = system: blue-stain fungi and molds; experiment: Activity against blue-stain fungi and molds in a stick test (threshold concentrations); conditions: beech sticks, 22° C., 90% relative humidity; for Threshold concentration (ppm), A. niger, score 0 / Threshold concentration (ppm), Aureobasidium, score 0 / Threshold concentration (ppm), Sclerophoma, score 0 / Threshold concentration (ppm), Trichoderma, score 0: minimum concentration to obtain score 0; for Threshold concentration (ppm), A. niger, score 1-2 / Threshold concentration (ppm), Aureobasidium, score 1-2 / Threshold concentration (ppm), Sclerophoma, score 1-2 / Threshold concentration (ppm), Trichoderma, score 1-2: minimum concentration to obtain score 1-2
In short: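 Wood sticks soaked 3 h in compound serially diluted in 50% ethanol, dried, then inoculated with fungal or spore suspension. Incubated at 22° C and 90% relative humidity until untreated controls grew, then growth scored 0 (none) to 4 (>50% surface covered).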

[3] = system: mixed spore suspension of blue-stain fungus and molds; experiment: Activity against blue-stain fungi and molds in a mold cabinet test (BS3900: Part G6); parameters: key: 0: No growth; Trace of growth of up to 1% coverage of the test inoculated area; 2: Growth covering between 1 and 10% of the inoculated test area; Growth covering between 10 and 30% of the inoculated test area; 4: Growth covering between 30 and 70% of the inoculated test area; 5: Growth covering more than 70t of the inoculated test area
In short: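 Painted Scots pine sticks, sterilized by irradiation, were treated with compound solutions, dipped in mixed spore suspension and held in a mold chamber for 12 weeks. Surface growth scored 0 (none) to 5 (>70% of inoculated area covered).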

Row | Structure (SMILES) | Surface score of wooden sticks treated with paint formulation, A. pullulans ([1]; 0.15% a.i. in paint) | Surface score of wooden sticks treated with paint formulation, A. pullulans ([1]; 0.3% a.i. in paint) | Surface score of wooden sticks treated with paint formulation, A. versicolor ([1]; 0.15% a.i. in paint) | Surface score of wooden sticks treated with paint formulation, A. versicolor ([1]; 0.3% a.i. in paint) | Surface score of wooden sticks treated with paint formulation, C. cladosporioides ([1]; 0.15% a.i. in paint) | Surface score of wooden sticks treated with paint formulation, C. cladosporioides ([1]; 0.3% a.i. in paint) | Surface score of wooden sticks treated with paint formulation, P. purpurogenum ([1]; 0.15% a.i. in paint) | Surface score of wooden sticks treated with paint formulation, P. purpurogenum ([1]; 0.3% a.i. in paint) | Surface score of wooden sticks treated with paint formulation, P. violacea ([1]; 0.15% a.i. in paint) | Surface score of wooden sticks treated with paint formulation, P. violacea ([1]; 0.3% a.i. in paint) | Surface score of wooden sticks treated with paint formulation, R rubra (y) ([1]; 0.15% a.i. in paint) | Surface score of wooden sticks treated with paint formulation, R rubra (y) ([1]; 0.3% a.i. in paint) | Surface score of wooden sticks treated with paint formulation, S. chartarum ([1]; 0.15% a.i. in paint) | Surface score of wooden sticks treated with paint formulation, S. chartarum ([1]; 0.3% a.i. in paint) | Surface score of wooden sticks treated with paint formulation, U. atrum ([1]; 0.15% a.i. in paint) | Surface score of wooden sticks treated with paint formulation, U. atrum ([1]; 0.3% a.i. in paint) | Threshold concentration (ppm), A. niger, score 0 [2] [ppm] | Threshold concentration (ppm), A. niger, score 1-2 [2] | Threshold concentration (ppm), Aureobasidium, score 0 [2] [ppm] | Threshold concentration (ppm), Aureobasidium, score 1-2 [2] | also measured
1 | [O-][S+]1CCON=C1c1cccs1 (centres unmarked) [Compound 8] | 0 | 0 | 0 | 0 | 0 | 0 | 0 | 0 | 4 (Growth covering between 30 and 70% of the inoculated test area) | 0 | 1 (Trace of growth of up to 1% coverage of the test inoculated area) | 1 (Trace of growth of up to 1% coverage of the test inoculated area) | 0 | 0 | 1 (Trace of growth of up to 1% coverage of the test inoculated area) | 1 (Trace of growth of up to 1% coverage of the test inoculated area) | 1000 | 250-500 ppm | >1000 | 250-500 ppm | Threshold concentration (ppm), Sclerophoma, score 0 [2]: 100 ppm; Threshold concentration (ppm), Sclerophoma, score 1-2 [2]: 50-100 ppm; Threshold concentration (ppm), Trichoderma, score 0 [2]: 1000 ppm; Threshold concentration (ppm), Trichoderma, score 1-2 [2]: 500-1000 ppm; Surface score in a paint formulation in a mold cabinet test, 6 weeks ([3]; 0.15% in water-based paint): 0; Surface score in a paint formulation in a mold cabinet test, 12 weeks ([3]; 0.15% in water-based paint): 2.0; Surface score in a paint formulation in a mold cabinet test, 6 weeks ([3]; 0.3% in water-based paint): 0; Surface score in a paint formulation in a mold cabinet test, 12 weeks ([3]; 0.3% in water-based paint): 1.5
2 | O=S1(=O)CCON=C1c1cccs1 [Compound 34] | 0 | 0 | 0 | 0 | 0 | 0 | 4 (Growth covering between 30 and 70% of the inoculated test area) | 1 (Trace of growth of up to 1% coverage of the test inoculated area) | 4 (Growth covering between 30 and 70% of the inoculated test area) | 1 (Trace of growth of up to 1% coverage of the test inoculated area) | 3 (Growth covering between 10 and 30% of the inoculated test area) | 0 | 1 (Trace of growth of up to 1% coverage of the test inoculated area) | 0 | 3 (Growth covering between 10 and 30% of the inoculated test area) | 1 (Trace of growth of up to 1% coverage of the test inoculated area) | 500 | <250 ppm | >1000 | 250-500 ppm | Threshold concentration (ppm), Sclerophoma, score 0 [2]: 100 ppm; Threshold concentration (ppm), Sclerophoma, score 1-2 [2]: <50 ppm; Threshold concentration (ppm), Trichoderma, score 0 [2]: 2500 ppm; Threshold concentration (ppm), Trichoderma, score 1-2 [2]: 500-1000 ppm; Surface score in a paint formulation in a mold cabinet test, 6 weeks ([3]; 0.15% in water-based paint): 0.5; Surface score in a paint formulation in a mold cabinet test, 12 weeks ([3]; 0.15% in water-based paint): 1.5; Surface score in a paint formulation in a mold cabinet test, 6 weeks ([3]; 0.3% in water-based paint): 0; Surface score in a paint formulation in a mold cabinet test, 12 weeks ([3]; 0.3% in water-based paint): 1.0
